Experimental findings from patent US20160361252A1, “ANHYDROUS MULTIPHASE GEL SYSTEM” (priority 2005, published 2016) are described below.

The test system of the assay is DNFB-induced allergic contact dermatitis. Nature of the assay: DNFB-induced contact dermatitis in mice (allergic contact dermatitis model). In kind it is in vivo, mice (NMRI). To be noted: ascrolimus applied in the EDR system, 0.1, 0.3, 1.0%, ear homogenates, 24 hours. An excerpt:
Various models can be used in order to determine the effectiveness and bioavailability of active substances as a function of the topical medication used. A suitable pharmacological model within the scope of anti-inflammatory therapy on the skin is represented by the “Irritant contact dermatitis (ICD)” model in mice. In this model, the inflammatory components of eczema are imitated. This inflammatory aspect likewise plays a role in allergic contact dermatitis and atopic dermatitis with the participation of allergen-specific T cells intrinsic to the skin. Therefore, a T-cell-dependent model of allergic contact dermatitis (in reaction to dinitrofluorobenzene, DNFB) can be utilized. Acute and chronic allergic contact dermatitis (ACD) is characterized by a type-1 dominated cytokine profile. Therefore, the ACD model induced by dinitrofluorobenzene (DNFB) was used in order to assess in vivo the activity of the active substance “ascrolimus” (topical immunomodulator). After sensitizing by means of DNFB, edema was produced by subsequent application of the same contact allergens and therefore, a cutaneous infiltration of allergenic T-cells and granulocytes was triggered. The mice (NMRI) were sensitized with 0.5% DNFB on day 0 and day 1. On day 5, the mice were again treated with 0.3% DNFB. […]

Take ascrolimus: the “peroxidase activity as a measure for granulocyte infiltration (delta peroxidase, FIG. 5)” value is reported as “significant concentration-dependent inhibition”.
